We go through 2 molecules from patent publication US20160340327A1, “PROCESS FOR PREPARING AMORPHOUS CABAZITAXEL” (SHILPA MEDICARE LIMITED, priority 2012, published 2016).

Data set [1] can be described thus: Storage stability of the solid form. It counts as physicochemical. The conditions noted are these: storage for longer time; no conditions or data printed.
For data set [2] the following is noted: description from the drug label; cited from earlier work.

Consider `CO[C@H]1C(=O)[C@@]2(C)C([C@H](OC(=O)c3ccccc3)[C@]3(O)C[C@H](OC(=O)[C@H](O)[C@H](NC(=O)OC(C)(C)C)c4ccccc4)C(C)=C1C3(C)C)[C@]1(OC(C)=O)CO[C@@H]1C[C@@H]2OC` (some centres unmarked), for which the “stability on handling and storage (morphology and physicochemical characteristics)” value in data set [1] is reported as “quite stable”.

On to `CO[C@H]1C(=O)[C@]2(C)[C@@H](OC)C[C@H]3OC[C@@]3(OC(C)=O)[C@H]2[C@H](OC(=O)c2ccccc2)[C@]2(O)C[C@H](OC(=O)[C@H](O)[C@@H](NC(=O)OC(C)(C)C)c3ccccc3)C(C)=C1C2(C)C` [Cabazitaxel, (2α,5β,7β,10β,13α)-4-acetoxy-13-({(2R,3S)-3[(tert-butoxycarbonyl)amino]-2-hydroxy-3-phenylpropanoyl}oxy)-1-hydroxy-7,10-dimethoxy-9-oxo-5,20-epoxytax-11-en-2-yl benzoate], for which, in data set [2], the solubility in water result is on record as “practically insoluble in water”.
